Data reported in ChEMBL document CHEMBL5214896, “Discovery of Selective Pituitary Adenylate Cyclase 1 Receptor (PAC1R) Antagonist Peptides Potent in a Maxadilan/PACAP38-Induced Increase in Blood Flow Pharmacodynamic Model” (J Med Chem, 2021).
Blank lines part the entries; values can stand above or below the compound they belong to. Residues, ends and D or L forms follow the SMILES beside them.

Columns and labels:
[1] = target: T1, Pituitary adenylate cyclase-activating polypeptide type I receptor (Homo sapiens, UniProt P41586); assay: Antagonist activity at PAC1R in human SH-SY5Y cells assessed as inhibition of PACAP38-induced cAMP accumulation pre-incubated for 30 mins followed by agonist addition and measured after 75 mins by Eu-cAMP tracer based LANCE ultra cAMP assay; type: cell-based
[2] = target: T2, Vasoactive intestinal polypeptide receptor 1 (Homo sapiens, UniProt P32241); assay: Antagonist activity at VPAC1 in human SH-SY5Y cells assessed as inhibition of PACAP38-induced cAMP accumulation pre-incubated for 30 mins followed by agonist addition and measured after 75 mins by Eu-cAMP tracer based LANCE ultra cAMP assay; type: functional, cell-based
T2 sequence (P32241 whole entry): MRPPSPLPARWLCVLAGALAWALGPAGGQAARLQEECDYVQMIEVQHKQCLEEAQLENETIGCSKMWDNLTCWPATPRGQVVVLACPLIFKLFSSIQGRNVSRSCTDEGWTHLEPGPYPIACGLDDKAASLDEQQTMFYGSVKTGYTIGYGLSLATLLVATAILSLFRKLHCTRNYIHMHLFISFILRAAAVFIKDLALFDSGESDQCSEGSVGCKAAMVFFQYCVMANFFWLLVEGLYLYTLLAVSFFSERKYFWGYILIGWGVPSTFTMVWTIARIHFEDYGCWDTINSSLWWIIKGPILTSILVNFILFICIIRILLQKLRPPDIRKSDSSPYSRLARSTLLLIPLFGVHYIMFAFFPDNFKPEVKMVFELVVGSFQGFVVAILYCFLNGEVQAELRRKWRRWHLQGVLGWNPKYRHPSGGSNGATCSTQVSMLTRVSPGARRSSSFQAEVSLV

[3] = target: T3, Vasoactive intestinal polypeptide receptor 2 (Homo sapiens, UniProt P41587); assay: Antagonist activity at VPAC2 in human SH-SY5Y cells assessed as inhibition of PACAP38-induced cAMP accumulation pre-incubated for 30 mins followed by agonist addition and measured after 75 mins by Eu-cAMP tracer based LANCE ultra cAMP assay; type: functional, cell-based
T3 sequence (P41587 whole entry): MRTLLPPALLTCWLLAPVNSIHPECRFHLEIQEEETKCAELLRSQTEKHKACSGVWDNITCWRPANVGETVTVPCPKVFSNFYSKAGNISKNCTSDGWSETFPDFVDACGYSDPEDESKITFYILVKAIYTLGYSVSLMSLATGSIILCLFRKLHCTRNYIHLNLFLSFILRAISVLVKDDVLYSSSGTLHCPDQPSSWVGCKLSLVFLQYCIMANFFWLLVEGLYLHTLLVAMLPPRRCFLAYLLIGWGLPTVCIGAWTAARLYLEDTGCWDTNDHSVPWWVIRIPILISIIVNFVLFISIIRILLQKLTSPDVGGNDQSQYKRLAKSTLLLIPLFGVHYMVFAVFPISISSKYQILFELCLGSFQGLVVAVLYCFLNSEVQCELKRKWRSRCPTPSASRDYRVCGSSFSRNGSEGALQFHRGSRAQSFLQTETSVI

[4] = target: T1, Pituitary adenylate cyclase-activating polypeptide type I receptor; assay: Agonist activity at PAC1R in human SH-SY5Y cells assessed as cAMP accumulation incubated for 60 mins by Eu-cAMP tracer based LANCE ultra cAMP assay; type: cell-based
Target sequence in this assay (P41586 whole entry): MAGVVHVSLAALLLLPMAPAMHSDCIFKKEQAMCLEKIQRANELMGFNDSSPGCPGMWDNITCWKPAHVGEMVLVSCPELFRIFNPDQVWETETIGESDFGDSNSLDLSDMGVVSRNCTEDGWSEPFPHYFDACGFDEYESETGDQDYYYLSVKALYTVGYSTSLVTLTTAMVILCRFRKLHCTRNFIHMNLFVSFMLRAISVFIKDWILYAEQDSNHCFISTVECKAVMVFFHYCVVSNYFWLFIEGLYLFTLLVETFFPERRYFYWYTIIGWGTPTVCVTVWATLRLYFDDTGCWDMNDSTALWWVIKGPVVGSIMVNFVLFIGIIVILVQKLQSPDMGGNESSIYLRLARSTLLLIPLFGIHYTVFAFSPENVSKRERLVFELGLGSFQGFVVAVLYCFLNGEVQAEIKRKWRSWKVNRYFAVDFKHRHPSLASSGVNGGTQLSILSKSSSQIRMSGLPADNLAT

[5] = target: T2, Vasoactive intestinal polypeptide receptor 1; assay: Agonist activity at VPAC1 in human SH-SY5Y cells assessed as cAMP accumulation incubated for 60 mins by Eu-cAMP tracer based LANCE ultra cAMP assay; type: functional, cell-based
[6] = target: T3, Vasoactive intestinal polypeptide receptor 2; assay: Agonist activity at VPAC2 in human SH-SY5Y cells assessed as cAMP accumulation incubated for 60 mins by Eu-cAMP tracer based LANCE ultra cAMP assay; type: functional, cell-based
Rattus norvegicus = assay: In vivo Antagonist activity at Maxadilan-induced Sprague-Dawley rat assessed as reduction in Maxadilan-induced blood flow at 0.3 mg/kg,sc measured after 45 mins; type: functional; design: scale not given: the % may be the effect or the level left; details: 0.75 h
[7] = target: T4, Pituitary adenylate cyclase-activating polypeptide type I receptor (Rattus norvegicus) (UniProt P32215); assay: Antagonist activity at PAC1R in rat RG2 cells assessed as inhibition of PACAP38-induced cAMP accumulation pre-incubated for 30 mins followed by agonist addition and measured after 75 mins by Eu-cAMP tracer based LANCE ultra cAMP assay; type: cell-based; details: filed as antagonist, time 105.0 min
T4 sequence (whole entry): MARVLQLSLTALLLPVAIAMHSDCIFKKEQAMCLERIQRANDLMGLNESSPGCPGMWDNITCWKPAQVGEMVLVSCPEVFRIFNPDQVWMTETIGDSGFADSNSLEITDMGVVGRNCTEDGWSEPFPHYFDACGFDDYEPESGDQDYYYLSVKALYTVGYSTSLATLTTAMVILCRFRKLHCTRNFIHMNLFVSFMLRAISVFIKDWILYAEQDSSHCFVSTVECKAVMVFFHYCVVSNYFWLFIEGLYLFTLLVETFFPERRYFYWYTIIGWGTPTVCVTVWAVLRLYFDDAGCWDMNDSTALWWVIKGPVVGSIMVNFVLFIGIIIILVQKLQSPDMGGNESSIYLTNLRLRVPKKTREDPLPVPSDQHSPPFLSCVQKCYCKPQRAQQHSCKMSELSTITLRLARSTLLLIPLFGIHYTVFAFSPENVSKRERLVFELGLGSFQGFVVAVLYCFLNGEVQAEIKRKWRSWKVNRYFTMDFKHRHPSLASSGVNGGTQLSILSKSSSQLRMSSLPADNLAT

[8] = target: T1, Pituitary adenylate cyclase-activating polypeptide type I receptor; assay: Antagonist activity at PAC1R in human SH-SY5Y cells assessed as inhibition of Maxadilan-induced cAMP accumulation pre-incubated for 30 mins followed by agonist addition and measured after 75 mins by Eu-cAMP tracer based LANCE ultra cAMP assay; type: cell-based; details: filed as antagonist, time 105.0 min
Target sequence in this assay (P41586 21-468 limits assumed): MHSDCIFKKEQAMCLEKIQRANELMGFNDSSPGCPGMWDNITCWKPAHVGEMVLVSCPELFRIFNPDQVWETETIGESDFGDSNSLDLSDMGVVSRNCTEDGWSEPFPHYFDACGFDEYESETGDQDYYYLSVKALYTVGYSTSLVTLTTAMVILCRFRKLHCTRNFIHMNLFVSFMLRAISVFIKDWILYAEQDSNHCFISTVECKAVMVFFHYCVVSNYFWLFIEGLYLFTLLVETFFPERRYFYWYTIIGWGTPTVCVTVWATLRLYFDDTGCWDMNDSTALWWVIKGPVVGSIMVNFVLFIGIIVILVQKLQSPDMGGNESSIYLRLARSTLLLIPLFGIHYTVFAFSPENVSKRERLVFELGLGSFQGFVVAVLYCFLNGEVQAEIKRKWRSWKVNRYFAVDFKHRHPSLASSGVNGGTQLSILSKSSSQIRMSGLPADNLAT

[9] = target: T4, Pituitary adenylate cyclase-activating polypeptide type I receptor (Rattus norvegicus); assay: Antagonist activity at PAC1R in rat RG2 cells assessed as inhibition of Maxadilan-induced cAMP accumulation pre-incubated for 30 mins followed by agonist addition and measured after 75 mins by Eu-cAMP tracer based LANCE ultra cAMP assay; type: cell-based; details: filed as antagonist, time 105.0 min
[10] = Half life in Sprague-Dawley rat at 2 mg/kg,iv measured upto 6 hrs by LC-MS analysis; type: ADME, organism-based; details: in vivo
[11] = Cmax in Sprague-Dawley rat at 2 mg/kg,iv measured upto 6 hrs by LC-MS analysis; type: ADME, organism-based; design: time < 6 hrs, dose 2 mg/kg, route iv; details: in vivo
[12] = AUC (0-infinity) in Sprague-Dawley rat at 2 mg/kg,iv measured upto 6 hrs by LC-MS analysis; type: ADME, organism-based; design: dose 2 mg/kg, time < 6 hrs, route iv; details: in vivo
[13] = Clearance in Sprague-Dawley rat at 2 mg/kg,iv measured upto 6 hrs by LC-MS analysis; type: ADME, organism-based; details: in vivo
[14] = Volume of distribution at steady state in Sprague-Dawley rat at 2 mg/kg,iv measured upto 6 hrs by LC-MS analysis; type: ADME, organism-based; details: in vivo, read-out: Vdss
[15] = Half life in Sprague-Dawley rat at 10 mg/kg,sc measured upto 6 hrs by LC-MS analysis; type: ADME, organism-based; details: in vivo
[16] = Cmax in Sprague-Dawley rat at 10 mg/kg,sc measured upto 6 hrs by LC-MS analysis; type: ADME, organism-based; design: dose 10 mg/kg, time < 6 hrs, route sc; details: in vivo
[17] = AUC (0-infinity) in Sprague-Dawley rat at 10 mg/kg,sc measured upto 6 hrs by LC-MS analysis; type: ADME, organism-based; design: dose 10 mg/kg, time < 6 hrs, route sc; details: in vivo
[18] = Tmax in Sprague-Dawley rat at 10 mg/kg,sc measured upto 6 hrs by LC-MS analysis; type: ADME, organism-based; details: in vivo
[19] = Bioavailability in Sprague-Dawley rat at 10 mg/kg,sc measured upto 6 hrs by LC-MS analysis; type: ADME, organism-based; details: in vivo

IC50 [1]: 3.5 nM | IC50 [2]: 118 nM | IC50 [3]: 4.5 nM
SMILES: CSCC[C@H](NC(=O)[C@H](CCC(N)=O)NC(=O)[C@H](CCCCN)NC(=O)[C@H](CCCNC(=N)N)NC(=O)[C@H](Cc1ccc(O)cc1)NC(=O)[C@H](CCCNC(=N)N)NC(=O)[C@H](CO)NC(=O)[C@H](Cc1ccc(O)cc1)NC(=O)[C@H](CO)NC(=O)[C@H](CC(=O)O)NC(=O)[C@@H](NC(=O)[C@@H](N)Cc1ccccc1)[C@@H](C)O)C(=O)N[C@@H](C)C(=O)N[C@H](C(=O)N[C@@H](CCCCN)C(=O)N[C@@H](CCCCN)C(=O)N[C@@H](Cc1ccc(O)cc1)C(=O)N[C@@H](CC(C)C)C(=O)N[C@@H](C)C(=O)N[C@@H](C)C(=O)N[C@H](C(=O)N[C@@H](CC(C)C)C(=O)NCC(=O)N[C@@H](CCCCN)C(=O)N[C@@H](CCCNC(=N)N)C(=O)N[C@@H](Cc1ccc(O)cc1)C(=O)N[C@@H](CCCCN)C(=O)N[C@@H](CCC(N)=O)C(=O)N[C@@H](CCCNC(=N)N)C(=O)N[C@H](C(=O)N[C@@H](CCCCN)C(=O)N[C@@H](CC(N)=O)C(=O)N[C@@H](CCCCN)C(N)=O)C(C)C)C(C)C)C(C)C

EC50 [4]: 0.03 nM | EC50 [5]: 0.03 nM | EC50 [6]: 0.06 nM
SMILES: CC[C@H](C)[C@H](NC(=O)CNC(=O)[C@H](CC(=O)O)NC(=O)[C@H](CO)NC(=O)[C@@H](N)Cc1cnc[nH]1)C(=O)N[C@@H](Cc1ccccc1)C(=O)N[C@H](C(=O)N[C@@H](CC(=O)O)C(=O)N[C@@H](CO)C(=O)N[C@@H](Cc1ccc(O)cc1)C(=O)N[C@@H](CO)C(=O)N[C@@H](CCCNC(=N)N)C(=O)N[C@@H](Cc1ccc(O)cc1)C(=O)N[C@@H](CCCNC(=N)N)C(=O)N[C@@H](CCCCN)C(=O)N[C@@H](CCC(N)=O)C(=O)N[C@@H](CCSC)C(=O)N[C@@H](C)C(=O)N[C@H](C(=O)N[C@@H](CCCCN)C(=O)N[C@@H](CCCCN)C(=O)N[C@@H](Cc1ccc(O)cc1)C(=O)N[C@@H](CC(C)C)C(=O)N[C@@H](C)C(=O)N[C@@H](C)C(=O)N[C@H](C(=O)N[C@@H](CC(C)C)C(=O)NCC(=O)N[C@@H](CCCCN)C(=O)N[C@@H](CCCNC(=N)N)C(=O)N[C@@H](CCCCN)C(=O)N[C@@H](Cc1ccc(O)cc1)C(=O)N[C@@H](CCCCN)C(=O)N[C@@H](CCC(N)=O)C(=O)N[C@@H](CCCNC(=N)N)C(=O)N[C@H](C(=O)N[C@@H](CCCCN)C(=O)N[C@@H](CC(N)=O)C(=O)N[C@@H](CCCCN)C(N)=O)C(C)C)C(C)C)C(C)C)[C@@H](C)O

IC90 ([1]; filed as antagonist, time 105.0 min): 0.42 nM | IC90 [7]: 0.17 nM | IC90 [8]: 0.12 nM | IC90 [9]: 0.14 nM | half-life [10]: 58.1 min | Cmax [11]: 4.17 µM | AUC(0-inf) [12]: 1.16 µM·h | clearance [13]: 6.55 mL/min/kg | Vd [14]: 0.217 L/kg | half-life [15]: 41.3 min | Cmax [16]: 1110 nM | AUC(0-inf) [17]: 1.65 µM·h | Tmax [18]: 15 min | bioavailability [19]: 28%
SMILES: CC[C@H](C)[C@H](NC(=O)[C@H](C)NC(=O)[C@H](CCCCN)NC(=O)[C@H](CCCNC(=N)N)NC(=O)[C@H](Cc1ccccc1)NC(=O)[C@H](CCC(N)=O)NC(=O)[C@@H]1CSSC[C@H](N)CC(=O)N[C@@H](CC(=O)O)C(=O)N[C@@H](C)C(=O)N[C@@H]([C@@H](C)O)C(=O)N1)C(=O)N[C@@H](CC(=O)O)C(=O)N[C@@H](CC(=O)O)C(=O)N[C@H]1CSSC[C@@H](C(=O)N[C@@H](CCSC)C(=O)N[C@@H](CCCCN)C(=O)N[C@@H](CCC(N)=O)C(=O)N[C@@H](CCCCN)C(=O)N[C@@H](CCCCN)C(=O)N[C@@H](CCCCN)C(=O)N[C@@H](CCC(=O)O)C(=O)N[C@@H](Cc2c[nH]c3ccccc23)C(=O)N[C@@H](CCCCN)C(=O)N[C@@H](C)C(=O)NCC(N)=O)NC(=O)[C@H](C)NC(=O)[C@H](CCCCN)NC(=O)[C@H](Cc2ccccc2)NC(=O)[C@H](C(C)C)NC(=O)[C@H](CO)NC(=O)[C@H](CO)NC(=O)[C@H](Cc2cnc[nH]2)NC(=O)[C@H](Cc2ccc(O)cc2)NC(=O)[C@H](C)NC(=O)[C@H](CCC(N)=O)NC(=O)[C@H](CCCNC(=N)N)NC(=O)[C@H](C)NC1=O (HELM PEPTIDE1{[N[C@@H](CS[*:3])CC(=O)[*:2]].D.A.T.C.Q.F.R.K.A.I.D.D.C.A.R.Q.A.Y.H.S.S.V.F.K.A.C.M.K.Q.K.K.K.E.W.K.A.G.[am]}$PEPTIDE1,PEPTIDE1,1:R3-5:R3|PEPTIDE1,PEPTIDE1,14:R3-27:R3$$$V2.0)
Activity (Rattus norvegicus): 110%
